Laboratory results from patent US8313779B2, “Evaluation method and screening method for substance having action of activating/suppressing innate immunity, agent and food product for activating/suppressing innate immune mechanism and method for producing the same” (Genome Pharmaceuticals Institute Co., Ltd., priority 2007, dated 2012).

Test system: isolated head muscle specimen of the silkworm larva
Experiment: Inhibition of induced muscular contraction in the isolated head muscle specimen of the silkworm larva (pre-injection of test substance, then inducer)
Format: in vivo, silkworm (Bombyx mori) larva
Experimental: The experiment using kainic acid (0.2 mM) in place of peptideglycan was carried out as a control experiment. It has been known that kainic acid is an agonist of a glutamic acid receptor and induces the muscular contraction by strongly binding to a glutamine receptor to excessively stimulate the nerve. It has been already known that the muscular contraction induced by kainic acid is inhibited by L-glutamic acid.
The experiment using kainic acid (0.2 mM) in place of BmPP was carried out as the control experiment.
As the control experiment, 0.9% NaCl in place of the rabbit antiserum against BmPP was injected.

Structure (SMILES)	inhibition of muscular contraction induced by BmPP (N-acetylcysteine 200 mM, 0.05 mL pre-injected, 0.4 μg/mL BmPP (FIG. 6))	inhibition of muscular contraction induced by kainic acid (N-acetylcysteine 200 mM, 0.05 mL pre-injected, 0.2 mM kainic acid (FIG. 6))	inhibition of muscular contraction induced by air (N-acetylcysteine 200 mM, 0.05 mL pre-injected, 0.05 mL of air (FIG. 6))	inhibition of muscular contraction induced by H2O2 (N-acetylcysteine 200 mM, 0.05 mL pre-injected, 125 mM H2O2 (FIG. 6))	inhibition of muscular contraction induced by peptideglycan (N-acetylcysteine 200 mM, 0.05 mL pre-injected, peptideglycan = autoclaved Staphylococcus aureus (FIG. 6))	inhibition of muscular contraction induced by BmPP (L-glutamic acid 40 mM, 0.05 mL pre-injected, then BmPP (FIG. 4))	inhibition of muscular contraction induced by kainic acid (L-glutamic acid 40 mM, 0.05 mL pre-injected, kainic acid 0.2 mM (FIG. 2))	inhibition of muscular contraction induced by peptideglycan (L-glutamic acid 40 mM, 0.05 mL pre-injected, peptideglycan 0.5 mg/mL or 5 mg/mL, 0.05 mL (FIG. 2))	inhibition of muscular contraction induced by β-glucan (L-glutamic acid pre-injected)
CC(=O)N[C@@H](CS)C(=O)O [N-acetylcysteine]	no inhibitory effect	no inhibitory effect	inhibited	inhibited	inhibited				
N[C@@H](CCC(=O)O)C(=O)O [L-glutamic acid]						not inhibited	inhibited	not inhibited	not inhibited
